Test results taken from patent publication US5380715A, “Ap4 A as a hypotensive agent” (Fujirebio Inc., priority 1992, dated 1995).
Like-named read-outs stand apart in the source and are kept apart here.

Assays:
[1] = tested on: rabbit platelet aggregation; test: Inhibitory effect on rabbit platelet aggregation; assay type: cell-based; conditions: rabbit PRP
Protocol: Fresh blood samples were collected from male Japanese white rabbits weighing 2-3 kg. Blood was anticoagulated with citric acid (1 ml 3.8% citric acid solution +9 ml blood). These samples were centrifuged at room temperature for 20 min at 200×g to obtained platelet-rich plasma (PRP). Furthermore, the supernatant liquid was centrifuged for 10 min at 1500×g to obtained platelet-poor plasma (PPP). Aggregation of platelests was measured photometrically in a Nihon Kohden hema tracer equipped with a mechanical stirring device and with a chart record. At this time, the chart recorder was calibrated as follows: the light transmission obtained with PPP was set as 100% transmission and the optical density of PRP was taken as 0% transmission. Maximal aggregation, i.e. the maximal change in optical density of the primary wave calculated in percent light transmission. From the study, it was determined that ADP, Ap3A, PAF(platelet activating factor) and collagen induced maximal aggregations at a concentration of 1×10^-5 M, 1×10^-4 M, 1.9×10^-7 M and 5 μg/kg, respectively. In the following studies, these aggregating agents were used at maximal dose. The effect of Ap4A on platelet aggregation by ADP and Ap3A were tested. In this time, Ap4A was pretreated for 1 or 10 min before the addition of aggregating agents. Also, after the platelet aggregation was induced by addition of ADP, PAF or collagen to PRP, the platelet aggregate dispersing effect of Ap4A was tested.

[2] = words, cited from earlier work
dogs = test: Gradual hypotension during anesthesia in dogs (hemodynamics, blood gas); assay type: in vivo, mongrel dogs; conditions: dog; for Arterial Carbonate Tension PaCO2 / Arterial Oxygen Tension PaO2 / Arterial pH (pH-a) / Body Temperature BT / Cardiac Output C.O. / Central Venous Pressure CVP / Dose / Heart Rate H.R. / Hematocrit Value Hct / Mean Blood Pressure B.P. (mean) / Mean Blood Pressure B.P. (Δ%) / Mixed Venous Carbonate Tension PvCO2 / Mixed Venous Oxygen Tension PvO2 / Mixed Venous pH (pH-v) / Pulmonary Artery Pressure PAM / Pulmonary Capillary Wedge Pressure PCWP: enflurane
Protocol: Dogs were anesthetized with enflurane. […] The mean blood pressure (B.P.), heart rate (H.R.), cardiac output (C.O.), arterial oxygen tension (PaO2), mixed venos oxygen tension (PvO2), arterial carbonate tension (PaCO2), mixed venous carbonate tension (PvCO2), arterial pH (pH-a), mixed venous pH (pH-v), and base excess thereof were measured.
Mongrel dogs weighing 9 to 17 kg were anesthetized with intravenous thiopental 20 mg/kg by bolus injection, followed by 1% enflurane in 40% O2 /N2 after endotracheal intubation. […] Bilateral femoral arteries were catheterized, one for the determination of blood pressure and the other for blood sampling.
Access to the bilateral femoral veins was obtained for the administration of Ap4A, PG E1 or nitroglycerin and for the insertion of a ballon-tipped thermodilution catheter. The electrocardiogram was continuously monitored. The control values were obtained before the administration of each of the above-mentioned three agents. Each agent was administered using a syringe pump at titrated doses to produce gradual 20%, 40%, 50%, 60%, and 80% decreases in the mean arterial pressure (MAP) from the control value.
After the target blood pressure and stable hemodynamic conditions were reached, the following parameters were measured: heart rate (HR), mean pulmonary artery pressure (PAM), pulmonary capillary wedge pressure (PCWP), and central venous pressure (CVP). Cardiac output (CO) was determined by the thermodilution method. Gas analyses of arterial and mixed venous bloods were performed using a blood gas analyzer.

rats [3] = test: Gradual hypotension during anesthesia in rats; assay type: in vivo, male SD rats; conditions: rat, enflurane
Protocol: Male SD rats (Charles River Japan Inc.) were anesthetized with intravenous thiopental 50 mg/kg as a bolus, followed by 1% enflurane in air.
A femoral artery was catheterized to monitor the blood pressure and heart rate, while a femoral vein was catheterized for the administration of each of the test drugs.
(§1) The control values were obtained before the administration of each test drug. Each test drug was then administered using a syringe in a dose-dependent manner for 15 minutes. The percentage (%) of the decrease of blood pressure was determined when stabilized. Changes in heart rate (H.R.) at the administration of each test drug were measured. Furthermore,the recovery of mean blood pressure after intravenous infusion of each test drug was also determined from the decrease in heart rate and the blood pressure at a maximum dose of each test drug.

rats [4] = test: Recovery of blood pressure after gradual hypotension in rats; assay type: in vivo, male SD rats; conditions: rat
Protocol: FIG. 1 is a graph showing the recovery of the blood pressure of rats anesthetized with enflurane with time, when each of Ap4A ( ), PG E1 ( ) and nitroglycerin ( ) was used as a test drug to attain gradual hypotension, with the blood pressure before the administration of each test drug being set 100% for reference.
The recovery of blood pressure after gradual hypotension by use of each of Ap4A, PG E1 and nitroglycerin was also tested.
as §1
In a test similar to the above, each of Ap4A, PG E1, and nitroglycerin was administered to rats, so that about 65% fall in blood pressure, about 55% fall in blood pressure, and about 35% fall in blood pressure were stepwise attained. With respect to each agent, the recovery of blood pressure was tested.

Nc1ncnc2c1ncn2[C@@H]1O[C@H](COP(=O)(O)OP(=O)(O)O)[C@@H](O)[C@H]1O [ADP, adenosine diphosphate, reference compound]
concentration inducing maximal platelet aggregation [1]: 10 µM

Nc1ncnc2c1ncn2[C@@H]1O[C@H](COP(=O)(O)OP(=O)(O)OP(=O)(O)OC[C@H]2O[C@@H](n3cnc4c(N)ncnc43)[C@H](O)[C@@H]2O)[C@@H](O)[C@H]1O [Ap3A, diadenosine 5', 5'"-p^1,p^4 -triphosphate, reference compound]
concentration inducing maximal platelet aggregation [1]: 100 µM

FC(F)(F)C(Cl)Br (stereo not drawn) [Halothane]
shortcomings / adverse effects [2]: hepatotoxicity and sthenia of brain pressure

CCCCCCCCCCCCCCCCOCC(COP(=O)([O-])OCC[N+](C)(C)C)OC(C)=O (stereo not drawn) [PAF, reference compound]
concentration inducing maximal platelet aggregation [1]: 0.19 µM

CCCCC[C@H](O)/C=C/[C@H]1[C@H](O)CC(=O)[C@@H]1CCCCCCC(=O)O [PG E1, prostaglandin E1, reference compound]
Arterial Carbonate Tension PaCO2 (dogs; at -20% blood pressure): 37.3 ± 1.4 mmHg
Arterial Oxygen Tension PaO2 (dogs; at -20% blood pressure): 251.6 ± 8.3 mmHg
Arterial pH (pH-a) (dogs; at -20% blood pressure): 7.323 ± 0.015
Body Temperature BT (dogs; at -20% blood pressure): 37.4 ± 0.6 °C
Cardiac Output C.O. (dogs; at -20% blood pressure): 1.47 ± 0.18 L/min
Central Venous Pressure CVP (dogs; at -20% blood pressure): 3.27 ± 0.59 mmHg
Dose (dogs; at -20% blood pressure): 1.66 ± 0.48 µg/kg/min
Heart Rate H.R. (dogs; at -20% blood pressure): 167.8 ± 8.6 beats/min
Hematocrit Value Hct (dogs; at -20% blood pressure): 41.5 ± 2.9%
Mean Blood Pressure B.P. (mean) (dogs; at -20% blood pressure): 107.2 ± 5.3
Mean Blood Pressure B.P. (Δ%) (dogs; at -20% blood pressure): -20.3 ± 0.4%
Mixed Venous Carbonate Tension PvCO2 (dogs; at -20% blood pressure): 41.3 ± 1.3 mmHg
Mixed Venous Oxygen Tension PvO2 (dogs; at -20% blood pressure): 51.0 ± 1.0 mmHg
Mixed Venous pH (pH-v) (dogs; at -20% blood pressure): 7.303 ± 0.009
Pulmonary Artery Pressure PAM (dogs; at -20% blood pressure): 16.0 ± 3.8 mmHg
Pulmonary Capillary Wedge Pressure PCWP (dogs; at -20% blood pressure): 9.0 ± 3.0 mmHg
Arterial Carbonate Tension PaCO2 (dogs; at -40% blood pressure): 36.0 ± 0.7 mmHg
Arterial Oxygen Tension PaO2 (dogs; at -40% blood pressure): 249.3 ± 6.0 mmHg
Arterial pH (pH-a) (dogs; at -40% blood pressure): 7.334 ± 0.012
Body Temperature BT (dogs; at -40% blood pressure): 37.3 ± 0.6 °C
Cardiac Output C.O. (dogs; at -40% blood pressure): 1.20 ± 0.14 L/min
Central Venous Pressure CVP (dogs; at -40% blood pressure): 3.12 ± 0.47 mmHg
Dose (dogs; at -40% blood pressure): 3.61 ± 1.01 µg/kg/min
Heart Rate H.R. (dogs; at -40% blood pressure): 155.5 ± 9.1 beats/min
Hematocrit Value Hct (dogs; at -40% blood pressure): 39.8 ± 3.3%
Mean Blood Pressure B.P. (mean) (dogs; at -40% blood pressure): 79.8 ± 4.6
Mean Blood Pressure B.P. (Δ%) (dogs; at -40% blood pressure): -40.7 ± 0.5%
Mixed Venous Carbonate Tension PvCO2 (dogs; at -40% blood pressure): 39.7 ± 1.0 mmHg
Mixed Venous Oxygen Tension PvO2 (dogs; at -40% blood pressure): 50.0 ± 1.9 mmHg
Mixed Venous pH (pH-v) (dogs; at -40% blood pressure): 7.286 ± 0.012
Pulmonary Artery Pressure PAM (dogs; at -40% blood pressure): 13.3 ± 3.0 mmHg
Pulmonary Capillary Wedge Pressure PCWP (dogs; at -40% blood pressure): 6.8 ± 2.1 mmHg
Arterial Carbonate Tension PaCO2 (dogs; at -50% blood pressure): 36.9 ± 1.0 mmHg
Arterial Oxygen Tension PaO2 (dogs; at -50% blood pressure): 251.7 ± 9.3 mmHg
Arterial pH (pH-a) (dogs; at -50% blood pressure): 7.303 ± 0.017
Body Temperature BT (dogs; at -50% blood pressure): 37.2 ± 0.6 °C
Cardiac Output C.O. (dogs; at -50% blood pressure): 1.17 ± 0.11 L/min
Central Venous Pressure CVP (dogs; at -50% blood pressure): 3.48 ± 0.56 mmHg
Dose (dogs; at -50% blood pressure): 4.77 ± 1.14 µg/kg/min
Heart Rate H.R. (dogs; at -50% blood pressure): 143.3 ± 7.3 beats/min
Hematocrit Value Hct (dogs; at -50% blood pressure): 40.0 ± 3.5%
Mean Blood Pressure B.P. (mean) (dogs; at -50% blood pressure): 67.5 ± 3.4
Mean Blood Pressure B.P. (Δ%) (dogs; at -50% blood pressure): -49.8 ± 0.2%
Mixed Venous Carbonate Tension PvCO2 (dogs; at -50% blood pressure): 41.6 ± 0.6 mmHg
Mixed Venous Oxygen Tension PvO2 (dogs; at -50% blood pressure): 53.3 ± 4.5 mmHg
Mixed Venous pH (pH-v) (dogs; at -50% blood pressure): 7.278 ± 0.015
Pulmonary Artery Pressure PAM (dogs; at -50% blood pressure): 12.8 ± 2.7 mmHg
Pulmonary Capillary Wedge Pressure PCWP (dogs; at -50% blood pressure): 6.7 ± 2.0 mmHg
Arterial Carbonate Tension PaCO2 (dogs; at -60% blood pressure): 36.8 ± 1.0 mmHg
Arterial Oxygen Tension PaO2 (dogs; at -60% blood pressure): 253.2 ± 11.92 mmHg
Arterial pH (pH-a) (dogs; at -60% blood pressure): 7.308 ± 0.022
Body Temperature BT (dogs; at -60% blood pressure): 36.9 ± 0.7 °C
Cardiac Output C.O. (dogs; at -60% blood pressure): 1.04 ± 0.10 L/min
Central Venous Pressure CVP (dogs; at -60% blood pressure): 3.70 ± 0.76 mmHg
Dose (dogs; at -60% blood pressure): 5.91 ± 1.49 µg/kg/min
Heart Rate H.R. (dogs; at -60% blood pressure): 134.6 ± 7.2 beats/min
Hematocrit Value Hct (dogs; at -60% blood pressure): 38.4 ± 4.5%
Mean Blood Pressure B.P. (mean) (dogs; at -60% blood pressure): 56.0 ± 4.3
Mean Blood Pressure B.P. (Δ%) (dogs; at -60% blood pressure): -58.1 ± 1.3%
Mixed Venous Carbonate Tension PvCO2 (dogs; at -60% blood pressure): 40.6 ± 1.2 mmHg
Mixed Venous Oxygen Tension PvO2 (dogs; at -60% blood pressure): 49.9 ± 3.1 mmHg
Mixed Venous pH (pH-v) (dogs; at -60% blood pressure): 7.275 ± 0.016
Pulmonary Artery Pressure PAM (dogs; at -60% blood pressure): 12.4 ± 3.4 mmHg
Pulmonary Capillary Wedge Pressure PCWP (dogs; at -60% blood pressure): 6.2 ± 2.2 mmHg
effect on arterial pH / venous pH (dogs; result in words): significantly decrease arterial pH or have a tendency to decrease arterial pH
effect on carbonate tension (dogs; result in words): almost no effects on the oxygen tension and carbonate tension
effect on heart rate (dogs; result in words): tendency to increase the heart rate when a 20% or less fall in blood pressure is attained
effect on oxygen tension (dogs; result in words): almost no effects on the oxygen tension and carbonate tension
Blood Pressure (Δ%) (rats [3]; infusion 0.03 μg/kg/min): 0%
Heart Rate (Δ%) (rats [3]; infusion 0.03 μg/kg/min): 0%
Blood Pressure (Δ%) (rats [3]; infusion 0.1 μg/kg/min): 0%
Heart Rate (Δ%) (rats [3]; infusion 0.1 μg/kg/min): 0%
Blood Pressure (Δ%) (rats [3]; infusion 0.3 μg/kg/min): -1.9 ± 1.9%
Heart Rate (Δ%) (rats [3]; infusion 0.3 μg/kg/min): -0.3 ± 0.3%
Blood Pressure (Δ%) (rats [3]; infusion 1 μg/kg/min): -9.8 ± 3.1%
Heart Rate (Δ%) (rats [3]; infusion 1 μg/kg/min): -1.2 ± 1.4%
Blood Pressure (Δ%) (rats [3]; infusion 3 μg/kg/min): -26.2 ± 4.0%
Heart Rate (Δ%) (rats [3]; infusion 3 μg/kg/min): -8.0 ± 3.4%
Blood Pressure (Δ%) (rats [3]; infusion 10 μg/kg/min): -48.0 ± 2.7%
Heart Rate (Δ%) (rats [3]; infusion 10 μg/kg/min): -13.6 ± 2.9%
recovered blood pressure (before administration = 100%) (rats [4]; 15 minutes): about 85%
fall in blood pressure attained before recovery (rats [4]; stepwise): about 55%
rapidness of the recovery of blood pressure (rats [4]; order in words): Ap4A>PG E1 >nitroglycerin

O=C1N(Cc2ccccc2)C2C[S+]3CCCC3C2N1Cc1ccccc1 (stereo not drawn) [trimethaphan, Trimethaphan]
shortcomings / adverse effects [2]: renal insufficiency because of tubular impairment near the kidney, tachyphylaxis, tachycardia, and mydriasis after its use
shortcomings / adverse effects ([2]; listed as Trimethaphan): cardiac contractility, cardiac output, and coronary blood flow are decreased by the ganglionic blockade thereof and histamine liberation effect is increased

collagen [reference compound]
concentration inducing maximal platelet aggregation [1]: 5 µg/kg
